Publication PMC2655231 (Cancer research, 2009)

Assays:
Assay in all cases: in vitro radiometric kinase assay
Assay type in all cases: biochemical
Aurora A kinase = molecular target: T1, Aurora A kinase (Homo sapiens, UniProt O14965)
T1 sequence (O14965 122-403): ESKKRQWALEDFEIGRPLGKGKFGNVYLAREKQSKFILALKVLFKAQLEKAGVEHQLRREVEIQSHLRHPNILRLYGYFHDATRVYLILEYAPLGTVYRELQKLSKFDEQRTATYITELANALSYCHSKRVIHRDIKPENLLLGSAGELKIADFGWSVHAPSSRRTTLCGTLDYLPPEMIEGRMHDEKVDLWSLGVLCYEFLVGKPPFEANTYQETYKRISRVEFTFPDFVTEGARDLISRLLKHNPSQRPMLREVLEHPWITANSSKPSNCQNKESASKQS
T1 sequence (Q9ULW0 1-747 partner): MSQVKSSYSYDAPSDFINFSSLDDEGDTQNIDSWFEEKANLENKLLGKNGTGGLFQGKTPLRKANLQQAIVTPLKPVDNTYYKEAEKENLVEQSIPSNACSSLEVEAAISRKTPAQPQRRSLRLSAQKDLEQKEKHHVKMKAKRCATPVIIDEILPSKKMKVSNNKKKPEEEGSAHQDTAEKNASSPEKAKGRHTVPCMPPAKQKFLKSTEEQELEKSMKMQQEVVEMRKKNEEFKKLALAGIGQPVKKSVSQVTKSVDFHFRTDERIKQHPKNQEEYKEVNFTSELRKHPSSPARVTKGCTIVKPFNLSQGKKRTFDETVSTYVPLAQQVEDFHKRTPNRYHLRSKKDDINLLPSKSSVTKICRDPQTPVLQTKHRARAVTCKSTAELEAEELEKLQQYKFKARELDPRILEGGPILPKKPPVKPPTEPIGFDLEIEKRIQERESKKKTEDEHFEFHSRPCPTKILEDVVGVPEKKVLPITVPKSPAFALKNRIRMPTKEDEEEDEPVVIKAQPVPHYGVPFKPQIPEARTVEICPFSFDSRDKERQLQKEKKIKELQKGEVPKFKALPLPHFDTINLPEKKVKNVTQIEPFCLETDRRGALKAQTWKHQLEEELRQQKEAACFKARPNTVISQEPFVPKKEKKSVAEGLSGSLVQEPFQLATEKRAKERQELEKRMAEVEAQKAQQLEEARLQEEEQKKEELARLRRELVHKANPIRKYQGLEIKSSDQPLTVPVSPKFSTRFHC

Cdk1/cyclinB = Cdk1/cyclinB (Homo sapiens, UniProt P06493)
Aurora B kinase = Aurora B kinase (Xenopus laevis, UniProt Q6DE08)
Cdk5/p25 = Cdk5/p25 (Homo sapiens, UniProt Q00535)
Sequence of Cdk5/p25 (Q00535 whole entry): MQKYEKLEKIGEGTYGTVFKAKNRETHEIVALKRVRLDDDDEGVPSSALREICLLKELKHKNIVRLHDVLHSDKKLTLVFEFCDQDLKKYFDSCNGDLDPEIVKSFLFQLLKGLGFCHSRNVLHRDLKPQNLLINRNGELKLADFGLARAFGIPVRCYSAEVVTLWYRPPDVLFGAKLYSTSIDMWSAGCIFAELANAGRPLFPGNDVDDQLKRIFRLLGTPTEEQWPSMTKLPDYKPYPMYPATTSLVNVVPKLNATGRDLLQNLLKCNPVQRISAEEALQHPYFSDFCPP
Sequence of Cdk5/p25 (Q15078 2-307 partner): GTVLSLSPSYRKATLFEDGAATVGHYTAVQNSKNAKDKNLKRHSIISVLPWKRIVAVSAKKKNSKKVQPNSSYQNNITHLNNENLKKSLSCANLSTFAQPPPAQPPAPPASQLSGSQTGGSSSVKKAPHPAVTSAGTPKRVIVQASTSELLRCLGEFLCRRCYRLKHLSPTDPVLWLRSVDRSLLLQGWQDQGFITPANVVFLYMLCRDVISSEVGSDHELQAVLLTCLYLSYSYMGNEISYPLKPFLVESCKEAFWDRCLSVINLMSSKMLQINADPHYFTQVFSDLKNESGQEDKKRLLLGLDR

Sequence of Cdk1/cyclinB (P06493 whole entry): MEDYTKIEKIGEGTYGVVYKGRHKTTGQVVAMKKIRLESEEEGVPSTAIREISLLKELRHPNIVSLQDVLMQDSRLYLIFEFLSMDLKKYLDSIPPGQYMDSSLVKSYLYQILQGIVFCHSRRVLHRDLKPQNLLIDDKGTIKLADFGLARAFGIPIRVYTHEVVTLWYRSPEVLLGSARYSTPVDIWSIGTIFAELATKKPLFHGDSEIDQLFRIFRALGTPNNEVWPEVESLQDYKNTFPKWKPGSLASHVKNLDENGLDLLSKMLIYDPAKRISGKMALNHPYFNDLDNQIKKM
Sequence of Cdk1/cyclinB (P14635 whole entry partner): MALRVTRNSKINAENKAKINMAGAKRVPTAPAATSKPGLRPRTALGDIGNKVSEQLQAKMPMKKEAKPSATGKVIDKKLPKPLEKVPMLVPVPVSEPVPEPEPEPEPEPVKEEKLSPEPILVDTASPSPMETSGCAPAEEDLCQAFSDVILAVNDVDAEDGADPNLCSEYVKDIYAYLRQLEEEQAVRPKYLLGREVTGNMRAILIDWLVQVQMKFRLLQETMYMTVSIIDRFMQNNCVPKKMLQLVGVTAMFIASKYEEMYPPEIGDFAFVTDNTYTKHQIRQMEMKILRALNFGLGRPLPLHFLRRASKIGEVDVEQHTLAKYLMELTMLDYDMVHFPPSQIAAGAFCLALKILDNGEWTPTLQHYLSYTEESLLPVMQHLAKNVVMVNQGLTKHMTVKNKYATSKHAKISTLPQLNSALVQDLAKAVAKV
Sequence of Aurora B kinase (Q6DE08 60-361 limits assumed): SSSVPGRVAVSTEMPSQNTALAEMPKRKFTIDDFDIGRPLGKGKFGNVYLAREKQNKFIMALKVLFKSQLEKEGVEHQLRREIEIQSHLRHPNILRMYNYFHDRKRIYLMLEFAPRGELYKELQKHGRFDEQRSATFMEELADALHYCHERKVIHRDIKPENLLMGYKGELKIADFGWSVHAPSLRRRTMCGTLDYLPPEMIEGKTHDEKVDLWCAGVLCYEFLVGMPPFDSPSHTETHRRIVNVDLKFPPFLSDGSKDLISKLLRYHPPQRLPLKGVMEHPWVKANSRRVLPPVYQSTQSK
Sequence of Aurora B kinase (O13024 whole entry partner): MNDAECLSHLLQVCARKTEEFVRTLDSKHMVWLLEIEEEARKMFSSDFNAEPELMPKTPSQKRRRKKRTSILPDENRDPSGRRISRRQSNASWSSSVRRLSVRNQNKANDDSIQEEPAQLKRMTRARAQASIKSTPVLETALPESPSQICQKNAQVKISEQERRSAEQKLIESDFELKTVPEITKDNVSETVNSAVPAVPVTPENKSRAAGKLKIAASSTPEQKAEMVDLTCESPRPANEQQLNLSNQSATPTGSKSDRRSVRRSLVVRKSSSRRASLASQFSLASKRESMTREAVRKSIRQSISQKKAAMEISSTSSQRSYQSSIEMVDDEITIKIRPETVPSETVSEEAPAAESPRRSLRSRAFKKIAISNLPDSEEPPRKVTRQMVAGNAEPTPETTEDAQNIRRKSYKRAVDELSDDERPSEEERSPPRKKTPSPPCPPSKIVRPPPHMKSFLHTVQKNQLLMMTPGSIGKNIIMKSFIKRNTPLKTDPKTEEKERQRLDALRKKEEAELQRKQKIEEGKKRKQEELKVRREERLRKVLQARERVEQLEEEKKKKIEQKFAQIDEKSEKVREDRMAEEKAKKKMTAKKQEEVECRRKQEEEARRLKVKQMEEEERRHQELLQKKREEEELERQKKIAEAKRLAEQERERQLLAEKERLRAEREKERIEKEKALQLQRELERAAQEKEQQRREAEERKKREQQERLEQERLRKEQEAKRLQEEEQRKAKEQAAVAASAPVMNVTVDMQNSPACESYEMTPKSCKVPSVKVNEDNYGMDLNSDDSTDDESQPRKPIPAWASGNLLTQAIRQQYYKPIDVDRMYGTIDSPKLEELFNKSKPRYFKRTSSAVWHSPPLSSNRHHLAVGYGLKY

IC50 (Aurora A kinase): 21.7 µM
IC50 (Cdk1/cyclinB): ~20 µM
IC50 (Aurora B kinase): 2.4 µM
IC50 (Cdk5/p25): ~20 µM
SMILES: COc1cc(/C=N/NC(=O)c2sc(N)nc2C)ccc1O [OM137]
